Measured values from article PMC7689791 (Journal of Clinical Pharmacology, 2020).
Where “and” joins values, the source holds several entries; their conditions need not be identical. Equal entries are not always repeated. Where two headings read alike, the source gives them in different places.

Legend:
[1] = Population PK final model; type: in vivo, human
[2] = Model-predicted / simulated lemborexant exposure across covariates; set-up: species or system human
[3] = study 201, 15-day treatment, cited from earlier work
[4] = cited from earlier work
[5] = coadministration with famotidine; cited from earlier work
[6] = cited from earlier work; remark: listed apart in the source
CYP3A = settings: stand-alone DDI studies and PBPK modeling; cited from earlier work
[7] = Observed incidence of treatment-emergent adverse events in clinical studies
[8] = Logistic regression exposure-response analysis of TEAE probability; settings: for Headache TEAE probability / Influenza TEAE probability / Nasopharyngitis TEAE probability / Somnolence TEAE probability / Upper Respiratory Tract Infection TEAE probability / Urinary Tract Infection TEAE probability: person
[9] = oral [14C]lemborexant, healthy subjects, ref study E2006-A001-007, NCT02046213
[10] = studies 202, 303, 304, 5 to 15 mg
[11] = 5 mg, 5th quantile, Cav,ss 6.30 ng/mL
[12] = 5 mg, 25th quantile, Cav,ss 7.90 ng/mL
[13] = 5 mg, 50th quantile, Cav,ss 10.00 ng/mL
[14] = 5 mg, 75th quantile, Cav,ss 14.00 ng/mL
[15] = 5 mg, 95th quantile, Cav,ss 19.00 ng/mL
[16] = 10 mg, 5th quantile, Cav,ss 12.00 ng/mL
[17] = 10 mg, 25th quantile, Cav,ss 17.00 ng/mL
[18] = 10 mg, 50th quantile, Cav,ss 21.00 ng/mL
[19] = 10 mg, 75th quantile, Cav,ss 27.00 ng/mL
[20] = 10 mg, 95th quantile, Cav,ss 37.00 ng/mL

## Cc1ncc(OC[C@@]2(c3cccc(F)c3)C[C@H]2C(=O)Nc2ccc(F)cn2)c(C)n1 [Lemborexant]
[1]; 5 mg, 5th quantile of Cav,ss
  Cav,ss: 6.30 ng/mL
[1]; 5 mg, 25th quantile of Cav,ss
  Cav,ss: 7.90 ng/mL
[1]; 5 mg, 50th quantile of Cav,ss
  Cav,ss: 10.00 ng/mL
[1]; 5 mg, 75th quantile of Cav,ss
  Cav,ss: 14.00 ng/mL
[1]; 5 mg, 95th quantile of Cav,ss
  Cav,ss: 19.00 ng/mL
[1]; 10 mg, 5th quantile of Cav,ss
  Cav,ss: 12.00 ng/mL
[1]; 10 mg, 25th quantile of Cav,ss
  Cav,ss: 17.00 ng/mL
[1]; 10 mg, 50th quantile of Cav,ss
  Cav,ss: 21.00 ng/mL
[1]; 10 mg, 75th quantile of Cav,ss
  Cav,ss: 27.00 ng/mL
[1]; 10 mg, 95th quantile of Cav,ss
  Cav,ss: 37.00 ng/mL
[1]; bedtime once-daily dosing
  Accumulation ratio: 1.9
[1]; elderly (>65 years old) versus adults, univariate forward addition
  Effect size of age covariate on CL/F: 126%
[1]; elderly (≥65 years)
  Oral clearance lower in the elderly: 26%
[1]; final model estimate
  CL/F, elderly (categorical covariate factor): 0.739
  Interindividual variability CL/F: 48.1 %CV
  Interindividual variability Q3/F: 56.8 %CV
  Interindividual variability Q4/F: 46.5 %CV
  Interindividual variability V2/F: 142 %CV
  Interindividual variability V3/F: 82.0 %CV
  Interindividual variability V4/F: 41.4 %CV
  Q3/F: 32.1 L/h
  Q4/F: 31.0 L/h
  Residual variability, additive (TAD >3 h): 0.0189 ng/mL
  Residual variability, additive (TAD ≤3 h): 2.62 ng/mL
  Residual variability, proportional (TAD > 3 h): 14.3 % CV
  Residual variability, proportional (TAD ≤ 3 h): 32.9 % CV
  V2/F: 9.09 L
  V3/F: 278 L
  V4/F: 783 L
[1]; final model estimate, typical subject
  CL/F: 23 L/h and 22.7 L/h
[1]; final model, bootstrap median
  CL/F: 23.7 L/h
  CL/F, elderly (categorical covariate factor): 0.713
  Interindividual variability CL/F: 46.8 %CV
  Interindividual variability Q3/F: 42.6 %CV
  Interindividual variability Q4/F: 52.0 %CV
  Interindividual variability V2/F: 131 %CV
  Interindividual variability V3/F: 66.1 %CV
  Interindividual variability V4/F: 38.3 %CV
  Q3/F: 33.0 L/h
  Q4/F: 30.1 L/h
  Residual variability, additive (TAD >3 h): 0.0203 ng/mL
  Residual variability, additive (TAD ≤3 h): 2.46 ng/mL
  Residual variability, proportional (TAD > 3 h): 14.3 % CV
  Residual variability, proportional (TAD ≤ 3 h): 33.2 % CV
  V2/F: 11.4 L
  V3/F: 289 L
  V4/F: 779 L
[1]; final model, fixed
  ALAG1: 0.403 h
  D1, capsule: 0.467 h
  D1, nighttime dosing (covariate factor): 2.33
  D1, tablet (covariate factor): 0.254
  F1, food (covariate factor): 1.21
  Interindividual variability D1: 167 %CV
  Interindividual variability F1: 68.1 %CV
  Interindividual variability Ka: 43.8 %CV
  Ka, capsule: 0.532 h⁻¹
  Ka, food (covariate factor): 0.695
  Ka, tablet (covariate factor): 1.12
[1]; from microrate constants
  Contribution of beta half-life to total dispositional AUC: 0.2%
  Contribution of gamma half-life to total dispositional AUC: 0.4%
  Fraction of alpha disposition phase of total disposition AUC: 99.4%
[2]; ALP 150 U/L, relative to population average
  Higher exposure for high ALP: 9%
[2]; BMI 15 kg/m^2, relative to typical subject with normal BMI
  Lower exposure for underweight: 25%
[2]; BMI 32 kg/m^2, relative to typical subject with normal BMI
  Higher exposure for class 1 obesity: 11%
[2]; high ALP
  Exposure elevation in high ALP subjects: 8%
[2]; high BMI
  Exposure elevation in obese subjects: up to 20%
[2]; model prediction
  Higher CL/F for ALP at the upper range of normal over the typical subject: 7%
[2]; model prediction, relative to population average / adult insomnia population
  Higher exposure in the elderly: 26%
[3]; 1-mg group
  Somnolence frequency: 3.1%
[3]; 25-mg group
  Somnolence frequency: 22.0%
[4]
  calculated logP: 3.2
[5]
  Decrease in lemborexant Cmax: 27%
  Delay in the median tmax: 30 min
  Effect on lemborexant AUC0-t and AUC0-inf: no significant effect
[6]; [9]
  Fraction of the dose bioavailable: at least 87%
  Unchanged lemborexant in feces: 13.0%
  Unchanged lemborexant in urine: not detected
[6]; single ascending-dose study, ref study 001, NCT01463098
  Administered dose recovered as unchanged drug in urine: < 1%
CYP3A
  Interaction with moderate and strong CYP3A inhibitors: clinically meaningful interaction
[7]; 9-month SUNRISE 2 study
  Somnolence rate, treatment: 11%
[7]; [10]
  Nasopharyngitis frequency, active treatment: 8.6%
  Upper respiratory tract infection frequency, active treatment: 3.2%
  Urinary tract infection frequency, active treatment: 2.5%
[7]; study 202
  Somnolence rate, treatment: 6%
[8]; [11]
  Headache TEAE probability: 11.0 (7.8‐14.0)
  Influenza TEAE probability: 3.8 (2.3‐6.2)
  Nasopharyngitis TEAE probability: 10.0 (7.5‐14.0)
  Somnolence TEAE probability: 7.2 (5.3‐9.7)
  Upper Respiratory Tract Infection TEAE probability: 4.7 (2.9‐7.3)
  Urinary Tract Infection TEAE probability: 2.0 (1.2‐3.5)
[8]; [12]
  Headache TEAE probability: 9.8 (7.6‐13.0)
  Influenza TEAE probability: 3.6 (2.3‐5.5)
  Nasopharyngitis TEAE probability: 9.5 (7.3‐12.0)
  Somnolence TEAE probability: 7.4 (5.7‐9.7)
  Upper Respiratory Tract Infection TEAE probability: 4.4 (2.9‐6.4)
  Urinary Tract Infection TEAE probability: 2.1 (1.3‐3.5)
[8]; [13]
  Headache TEAE probability: 9.2 (7.3‐11.0)
  Influenza TEAE probability: 3.4 (2.3‐4.9)
  Nasopharyngitis TEAE probability: 8.9 (7.1‐11.0)
  Somnolence TEAE probability: 7.7 (6.1‐9.7)
  Upper Respiratory Tract Infection TEAE probability: 4.1 (2.9‐5.7)
  Urinary Tract Infection TEAE probability: 2.3 (1.4‐3.5)
[8]; [14]
  Headache TEAE probability: 8.3 (6.8‐10.0)
  Influenza TEAE probability: 3.1 (2.2‐4.3)
  Nasopharyngitis TEAE probability: 8.1 (6.6‐9.8)
  Somnolence TEAE probability: 8.1 (6.6‐9.9)
  Upper Respiratory Tract Infection TEAE probability: 3.6 (2.7‐4.9)
  Urinary Tract Infection TEAE probability: 2.5 (1.7‐3.6)
[8]; [15]
  Headache TEAE probability: 6.8 (5.3‐8.6)
  Influenza TEAE probability: 2.6 (1.8‐3.9)
  Nasopharyngitis TEAE probability: 6.7 (5.2‐8.6)
  Somnolence TEAE probability: 8.9 (7.3‐11.0)
  Upper Respiratory Tract Infection TEAE probability: 3.0 (2.0‐4.3)
  Urinary Tract Infection TEAE probability: 2.9 (2.0‐4.1)
[8]; [16]
  Headache TEAE probability: 9.2 (7.4‐12.0)
  Influenza TEAE probability: 3.4 (2.3‐4.9)
  Nasopharyngitis TEAE probability: 8.9 (7.1‐11.0)
  Somnolence TEAE probability: 7.7 (6.0‐9.7)
  Upper Respiratory Tract Infection TEAE probability: 4.1 (2.9‐5.7)
  Urinary Tract Infection TEAE probability: 2.2 (1.4‐3.5)
[8]; [17]
  Headache TEAE probability: 7.7 (6.3‐9.4)
  Influenza TEAE probability: 2.9 (2.1‐4.1)
  Nasopharyngitis TEAE probability: 7.6 (6.2‐9.3)
  Somnolence TEAE probability: 8.4 (6.9‐10.0)
  Upper Respiratory Tract Infection TEAE probability: 3.4 (2.5‐4.6)
  Urinary Tract Infection TEAE probability: 2.6 (1.8‐3.7)
[8]; [18]
  Headache TEAE probability: 6.8 (5.3‐8.6)
  Influenza TEAE probability: 2.6 (1.8‐3.9)
  Nasopharyngitis TEAE probability: 6.7 (5.2‐8.6)
  Somnolence TEAE probability: 8.9 (7.3‐11.0)
  Upper Respiratory Tract Infection TEAE probability: 3.0 (2.0‐4.3)
  Urinary Tract Infection TEAE probability: 2.9 (2.0‐4.0)
[8]; [19]
  Headache TEAE probability: 5.7 (4.0‐8.1)
  Influenza TEAE probability: 2.3 (1.3‐4.0)
  Nasopharyngitis TEAE probability: 5.8 (4.0‐8.1)
  Somnolence TEAE probability: 9.6 (7.6‐12.0)
  Upper Respiratory Tract Infection TEAE probability: 2.5 (1.5‐4.3)
  Urinary Tract Infection TEAE probability: 3.3 (2.2‐4.9)
[8]; [20]
  Headache TEAE probability: 3.9 (2.0‐7.4)
  Influenza TEAE probability: 1.7 (0.6‐4.7)
  Nasopharyngitis TEAE probability: 4.0 (2.1‐7.7)
  Somnolence TEAE probability: 11.0 (7.5‐17.0)
  Upper Respiratory Tract Infection TEAE probability: 1.7 (0.6‐4.6)
  Urinary Tract Infection TEAE probability: 4.4 (2.2‐8.7)
[8]; with and without adjustment for age
  Cav,ss as linear predictor of the probability of specific TEAEs (somnolence, nasopharyngitis, flu/influenza, urinary tract infection, upper respiratory tract infection, headache): not a clinically meaningful linear predictor
